Assay results taken from article PMC12304045 (2025).
One block for each compound: values may come before it.

Tests used:
[1] = test system: OTC-APT5, amine-terminated (DNA, aptamer) ACGACATTCCGTTGATCTCTCCCTTTTGGGTTGGTGTCGT; assay: DPV aptasensor, [Fe(CN)6]3-/4- probe; details: 2 mM MgCl2, 10 mM phosphate buffer pH 7.4
[2] = test system: OTC-APT5 (DNA, aptamer) ACGACATTCCGTTGATCTCTCCCTTTTGGGTTGGTGTCGT; assay: circular dichroism; details: 100 mM NaCl, 5 mM KCl, 2 mM MgCl2, 2 mM CaCl2; 20 mM tris, 0.05% Tween 20, 25 °C; 2 μM aptamer
[3] = test system: OTC-APT5 (DNA, aptamer) ACGACATTCCGTTGATCTCTCCCTTTTGGGTTGGTGTCGT; assay: fluorescence polarization titration; details: 100 mM NaCl, 5 mM KCl, 2 mM MgCl2, 2 mM CaCl2; 20 mM tris, 0.05% Tween 20; 200 nM OTC titrated with aptamer
[4] = test system: OTC-APT5 (DNA, aptamer) ACGACATTCCGTTGATCTCTCCCTTTTGGGTTGGTGTCGT; assay: fluorescence titration; details: 100 mM NaCl, 5 mM KCl, 2 mM MgCl2, 2 mM CaCl2; 20 mM tris, 0.05% Tween 20; 200 nM OTC titrated with aptamer; unit likely misprint for nM
[5] = highest tested 250 ng/mL, signal change <10% of OTC

SMILES: CN(C)[C@@H]1C(=O)C(C(N)=O)=C(O)[C@@]2(O)C(=O)C3=C(O)c4c(O)cccc4[C@@](C)(O)[C@H]3[C@H](O)[C@@H]12
binding [2]: yes | Kd [3]: 62 nM | Kd [4]: 106 nM | binding ([1]; 50 ng/mL OTC): yes

SMILES: CC1(C)S[C@@H]2[C@H](NC(=O)[C@H](N)c3ccccc3)C(=O)N2[C@H]1C(=O)O
binding ([1]; tested at fivefold excess over OTC, signal change <10% of OTC): no

SMILES: CC1(C)S[C@@H]2[C@H](NC(=O)Cc3ccccc3)C(=O)N2[C@H]1C(=O)O
binding [1, 5]: no

Now from value to compound:

binding [1, 5]: no
SMILES: NC[C@H]1O[C@H](O[C@H]2[C@H](O)[C@@H](O[C@H]3O[C@H](CO)[C@@H](O)[C@H](N)[C@H]3O)[C@H](N)C[C@@H]2N)[C@H](O)[C@@H](O)[C@@H]1O

binding ([1]; 50 ng/mL, signal similar to OTC): yes
SMILES: CN(C)[C@@H]1C(=O)C(C(N)=O)=C(O)[C@@]2(O)C(=O)C3=C(O)c4c(O)cccc4[C@@](C)(O)[C@H]3C[C@@H]12

binding [1, 5]: no
SMILES: CN[C@@H]1[C@H](O[C@H]2[C@H](O[C@H]3[C@H](O)[C@@H](O)[C@H](N=C(N)N)[C@@H](O)[C@@H]3N=C(N)N)O[C@@H](C)[C@]2(O)C=O)O[C@@H](CO)[C@H](O)[C@H]1O
